Several values for one entry are separate records, joined by “and”; a condition that tells them apart may be missing. Equal entries are not always repeated.
Legend:
[1] = target: T1, ternary complex CRBN/PROTAC/METTL3–14 (Homo sapiens, UniProt Q86U44+Q96SW2); experiment: FRET-based ternary complex formation assay (TCFA); format: binding; settings: for TCFA amplitude (mean ± SEM): Hook curve amplitude, fraction of the maximum of compound 16; for ECmax (nM) ± SD: PROTAC concentration at the maximum of the signal in the TCFA; for ECmax: TCFA, peak of the Hook curve
T1 construct: methyltransferase domains (MTD) of METTL3 (residues 354–580); His6 (N, cleaved yes); made in house; host or cells: METTL3-MTD/METTL14-MTD: baculovirus/Sf9; CRBN-TBD: E. coli Rosetta (DE3), co-expressed with BirA
How it was run: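 HTRF/TR-FRET measurement of PROTAC-induced complex between GST-tagged METTL3–14 and biotinylated CRBN^TBD-Avi (10 nM final) with 0.8 nM Eu^3+ anti-GST antibody, in 50 mM HEPES pH 7.5, 150 mM NaCl, 0.1% BSA, 100 mM KF. Emission ratio used; ECmax and Hook-curve amplitude taken from Gaussian fit or highest-signal data point.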

METTL3-14 [2] = target: T2, METTL3-14 (Homo sapiens, UniProt Q86U44); experiment: biochemical; design: with the full-length complex, the recombinant complex construct pFastBacDual-StrepII-GFP-TEV-METTL3-His-TEV-METTL14 was expressed; StrepII (N); GFP (N); TEV site (N); made in house; host or cells: baculovirus/Sf9 insect cells; settings: inhibition of catalytic activity of METTL3-14, binary FRET assay
How it was run: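 Full-length human METTL3–METTL14 complex (StrepII-GFP-METTL3-His/METTL14) expressed in baculovirus/Sf9 cells and purified. Inhibition of METTL3 methyltransferase activity measured in a homogeneous time-resolved fluorescence (HTRF) enzyme assay; IC50 determined.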
Target sequence in this assay (Q86U44 whole entry): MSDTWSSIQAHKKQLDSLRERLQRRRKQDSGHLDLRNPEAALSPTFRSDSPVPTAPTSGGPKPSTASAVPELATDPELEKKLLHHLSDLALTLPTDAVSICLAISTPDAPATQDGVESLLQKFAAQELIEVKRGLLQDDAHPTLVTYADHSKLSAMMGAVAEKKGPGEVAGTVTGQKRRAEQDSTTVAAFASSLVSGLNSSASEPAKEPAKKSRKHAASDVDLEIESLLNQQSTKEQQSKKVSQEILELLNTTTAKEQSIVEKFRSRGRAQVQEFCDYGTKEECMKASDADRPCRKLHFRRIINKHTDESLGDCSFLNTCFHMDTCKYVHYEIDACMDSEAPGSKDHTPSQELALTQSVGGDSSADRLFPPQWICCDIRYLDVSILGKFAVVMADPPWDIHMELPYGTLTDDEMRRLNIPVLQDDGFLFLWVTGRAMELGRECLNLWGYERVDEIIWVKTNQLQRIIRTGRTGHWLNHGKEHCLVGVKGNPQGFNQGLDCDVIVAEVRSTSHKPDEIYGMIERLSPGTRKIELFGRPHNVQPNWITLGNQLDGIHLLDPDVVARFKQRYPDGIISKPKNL
Target sequence in this assay (Q9HCE5 whole entry, further chain): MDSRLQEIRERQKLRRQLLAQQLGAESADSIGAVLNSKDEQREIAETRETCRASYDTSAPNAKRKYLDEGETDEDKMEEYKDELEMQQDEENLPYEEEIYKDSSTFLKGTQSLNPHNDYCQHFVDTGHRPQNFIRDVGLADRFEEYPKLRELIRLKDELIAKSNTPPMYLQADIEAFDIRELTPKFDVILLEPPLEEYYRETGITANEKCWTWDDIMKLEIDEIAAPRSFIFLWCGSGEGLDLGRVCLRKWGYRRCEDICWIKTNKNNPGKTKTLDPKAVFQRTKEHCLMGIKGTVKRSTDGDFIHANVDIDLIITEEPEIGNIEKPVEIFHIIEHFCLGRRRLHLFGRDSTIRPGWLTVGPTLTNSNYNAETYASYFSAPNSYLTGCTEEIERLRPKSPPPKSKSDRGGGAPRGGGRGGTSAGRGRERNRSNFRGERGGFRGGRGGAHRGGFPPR

METTL3-14 [3] = target: T2, METTL3-14; experiment: Cellular degradation assay (Western blot), METTL3 and/or METTL14 (METTL3–14) in MOLM-13; format: cell-based; design: METTL3–14 degradation up to 70% of the endogenous level; endogenous in cells; host or cells: MOLM-13, KASUMI-1, THP-1, NOMO-1; settings: for METTL3–14 levels in the presence of UZH2: MOLM-13, 2 μM PROTAC + 10 μM UZH2; for METTL3–14 degradation in the presence of lenalidomide: MOLM-13, 2 μM PROTAC + 10 μM lenalidomide; for degradation of METTL3 and/or METTL14: MOLM-13, 2 μM, 24 h, Western blot; for concentration at which the highest degradation was observed: MOLM-13, five concentrations
Protocol: MOLM-13, NOMO-1, THP-1, Kasumi-1, PC3, and DU145 cell lines were obtained from DSMZ-German Collection of Microorganisms and Cell Cultures GmbH. […] All cell lines were tested negative for mycoplasma contamination (PCR-based assay by Microsynth, Switzerland).
METTL3 (and METTL14) protein degradation was monitored by Western blot. Cells were treated with the indicated concentration of PROTACs or DMSO control (0.1% (v/v)) for 24h, 37 °C with 5% CO2. […] After SDS-PAGE, proteins were transferred to a nitrocellulose membrane, blocked (with 5% milk, 0.5% BSA in TBST buffer), and incubated overnight with primary antibodies. […] Densitometry was performed in Image Studio Lite software and analyzed in GraphPad Prism 9.
Target sequence in this assay (Q86U44 2-580 limits assumed): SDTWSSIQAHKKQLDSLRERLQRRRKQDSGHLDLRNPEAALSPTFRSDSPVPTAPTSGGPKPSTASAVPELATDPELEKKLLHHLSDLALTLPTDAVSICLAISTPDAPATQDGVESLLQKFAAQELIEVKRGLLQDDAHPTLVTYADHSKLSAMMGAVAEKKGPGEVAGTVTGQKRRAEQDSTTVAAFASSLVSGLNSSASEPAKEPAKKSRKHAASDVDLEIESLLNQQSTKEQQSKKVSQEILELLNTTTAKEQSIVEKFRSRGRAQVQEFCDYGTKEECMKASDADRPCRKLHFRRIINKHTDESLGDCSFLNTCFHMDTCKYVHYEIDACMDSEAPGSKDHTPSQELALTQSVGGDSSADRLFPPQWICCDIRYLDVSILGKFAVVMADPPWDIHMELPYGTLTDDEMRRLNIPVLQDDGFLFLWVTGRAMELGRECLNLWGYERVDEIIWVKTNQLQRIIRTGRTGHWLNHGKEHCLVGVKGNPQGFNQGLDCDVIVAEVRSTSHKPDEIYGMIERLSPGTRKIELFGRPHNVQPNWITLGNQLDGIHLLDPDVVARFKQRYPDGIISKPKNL
Target sequence in this assay (Q9HCE5 whole entry partner): as the sequence (Q9HCE5 whole entry, further chain) above

METTL3-14 [4] = target: T2, METTL3-14; experiment: Cellular degradation assay (Western blot) in THP-1; format: cell-based; design: METTL3–14 degradation up to 70% of the endogenous level; endogenous in cells; host or cells: MOLM-13, KASUMI-1, THP-1, NOMO-1; settings: THP-1, 2 μM, 24 h
Protocol: MOLM-13, NOMO-1, THP-1, Kasumi-1, PC3, and DU145 cell lines were obtained from DSMZ-German Collection of Microorganisms and Cell Cultures GmbH. Cells were cultured in RPMI 1640 medium (11875093, Thermo Fisher Scientific) containing 10% FBS (16140071, Thermo Fisher Scientific) and 1% penicillin-streptomycin (15140122, Thermo Fisher Scientific) in 5% CO2 at 37 °C in a humidified incubator, with maintained cell densities at 0.5–1 × 10^6 cells/mL. All cell lines were tested negative for mycoplasma contamination (PCR-based assay by Microsynth, Switzerland).
METTL3 (and METTL14) protein degradation was monitored by Western blot. Cells were treated with the indicated concentration of PROTACs or DMSO control (0.1% (v/v)) for 24h, 37 °C with 5% CO2. Samples were then collected and lysed with RIPA buffer with added protease inhibitors (11697498001, Roche). After SDS-PAGE, proteins were transferred to a nitrocellulose membrane, blocked (with 5% milk, 0.5% BSA in TBST buffer), and incubated overnight with primary antibodies. The following antibodies were used: GAPDH (no. 2118, Cell Signaling, 1:4000), β-actin (ab8226, Abcam, 1:2000), METTL3 (ab195352, Abcam, 1:1000), and METTL14 (ab220031, Abcam, 1:1000). Membranes were scanned using an LI-COR Odyssey DLx imager after incubation with appropriate secondary antibodies (antimouse IgG IRDye 680RD (926–68072, LI-COR, 1:10000) and goat anti-Rabbit IgG IRDye 800CW (926–32211, LI-COR, 1:10000)). Densitometry was performed in Image Studio Lite software and analyzed in GraphPad Prism 9.
Target sequence in this assay (Q86U44 2-580 limits assumed): as the sequence (Q86U44 2-580 limits assumed) above
Target sequence in this assay (Q9HCE5 whole entry partner): as the sequence (Q9HCE5 whole entry, further chain) above

METTL14 = experiment: Cellular degradation assay (Western blot), METTL14 in MOLM-13; format: cell-based, human; settings: MOLM-13, 24 h, 2 μM compound
How it was run: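 Leukemia and prostate lines are grown in RPMI 1640 plus 10% FBS, then exposed for 24h to PROTAC or vehicle. Lysates are immunoblotted for METTL3 and METTL14, and band intensities are quantified.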

T1 sequence (Q86U44 354-580): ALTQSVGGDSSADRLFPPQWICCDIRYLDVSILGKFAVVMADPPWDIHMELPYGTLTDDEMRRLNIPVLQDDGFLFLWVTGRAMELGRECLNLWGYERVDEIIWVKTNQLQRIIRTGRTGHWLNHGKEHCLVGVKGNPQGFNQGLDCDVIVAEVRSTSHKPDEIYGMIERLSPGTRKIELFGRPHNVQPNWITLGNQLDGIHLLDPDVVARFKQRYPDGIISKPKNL
T1 sequence (Q9HCE5 107-395 partner limits assumed): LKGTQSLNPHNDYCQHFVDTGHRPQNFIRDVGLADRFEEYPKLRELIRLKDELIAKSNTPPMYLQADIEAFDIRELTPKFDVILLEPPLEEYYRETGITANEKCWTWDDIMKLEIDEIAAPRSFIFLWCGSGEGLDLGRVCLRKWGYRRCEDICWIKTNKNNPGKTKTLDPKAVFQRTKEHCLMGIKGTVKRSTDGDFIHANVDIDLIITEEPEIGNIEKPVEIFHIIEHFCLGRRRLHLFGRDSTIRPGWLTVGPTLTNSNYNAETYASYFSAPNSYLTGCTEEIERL
T1 sequence (Q96SW2 318-442): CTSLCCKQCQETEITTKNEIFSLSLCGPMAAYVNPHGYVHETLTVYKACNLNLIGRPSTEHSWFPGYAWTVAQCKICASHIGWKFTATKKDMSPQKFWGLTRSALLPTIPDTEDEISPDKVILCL

Row | Compound | TCFA amplitude (mean ± SEM) [1] | ECmax (nM) ± SD [1] | ECmax [1] | IC50 (METTL3-14 [2]) | METTL3–14 levels in the presence of UZH2 (METTL3-14 [3]) | METTL3–14 degradation in the presence of lenalidomide (METTL3-14 [3]) | degradation of METTL3 and/or METTL14 (METTL3-14 [3]) | degradation levels of METTL3 and METTL14 (METTL3-14 [4]) | MOLM-13 West. blot at 24h 2 μM comp conc. Degradation (%) of METTL14 (METTL14) | highest degradation in concentration dependence (METTL3-14 [3]; MOLM-13, 0.1 μM) | concentration at which the highest degradation was observed (METTL3-14 [3])
1 | CC1(C)CCN(Cc2cc(F)c(N3CC(=O)NC4(CCN(c5cc(NCC6CCN(C(=O)CCCCCNc7cccc8c7C(=O)N(C7CCC(=O)NC7=O)C8=O)CC6)ncn5)CC4)C3)cc2F)CC1 (stereo not shown) [Compound 24] | 1.2 ± 0.0 | 470 ± 80 nM | submicromolar | 58 ± 12 nM | elevated levels of METTL3–14 | did not observe any degradation | ≥ 50% | comparable to those in MOLM-13 | 50 ± 13% | – | –
2 | CC1(C)CCN(Cc2cc(F)c(N3CC(=O)NC4(CCN(c5cc(NCCN6CCN(C(=O)CCCCCNc7cccc8c7C(=O)N(C7CCC(=O)NC7=O)C8=O)CC6)ncn5)CC4)C3)cc2F)CC1 (stereo not shown) [Compound 30] | 1.0 ± 0.1 | 70 ± 30 nM | submicromolar | 27 ± 6 nM | – | – | – | comparable to those in MOLM-13 | – | up to 60% | 0.1 µM
3 | CC1(C)CCN(Cc2cc(F)c(N3CC(=O)NC4(CCN(c5cc(NCC6CCN(C(=O)CCCNc7cccc8c7C(=O)N(C7CCC(=O)NC7=O)C8=O)CC6)ncn5)CC4)C3)cc2F)CC1 (stereo not shown) [Compound 22] | 1.1 ± 0.1 | 190 ± 90 nM | – | 11 ± 1 nM | – | – | – | comparable to those in MOLM-13 | 55 ± 11% | – | –
4 | CC1(C)CCN(Cc2cc(F)c(N3CC(=O)NC4(CCN(c5cc(NCc6cccc(CNC(=O)CCCCCCCCCCn7cc(CNc8cccc9c8C(=O)N(C8CCC(=O)NC8=O)C9=O)nn7)c6)ncn5)CC4)C3)cc2F)CC1 (stereo not shown) [Compound 20] | 0.6 ± 0.0 | 860 ± 240 nM | submicromolar | 200 ± 30 nM | elevated levels of METTL3–14 | did not observe any degradation | ≥ 50% | comparable to those in MOLM-13 | 51% and 51 ± 10% | – | –
5 | CC1(C)CCN(Cc2cc(F)c(N3CC(=O)NC4(CCN(c5cc(NCc6cccc(CNC(=O)CCCNc7cccc8c7C(=O)N(C7CCC(=O)NC7=O)C8=O)c6)ncn5)CC4)C3)cc2F)CC1 (stereo not shown) [Compound 14] | 1.2 ± 0.0 | 250 ± 0 nM | submicromolar | 11 ± 1 nM | – | – | – | comparable to those in MOLM-13 | 52% and 52 ± 6% | – | 1 µM
